The test addresses Heat shock protein HSP 90-beta (Homo sapiens, UniProt P08238). Nature of the test: Binding affinity to human recombinant HSP90.
Heat shock protein HSP 90-beta, sequence (P08238 whole entry): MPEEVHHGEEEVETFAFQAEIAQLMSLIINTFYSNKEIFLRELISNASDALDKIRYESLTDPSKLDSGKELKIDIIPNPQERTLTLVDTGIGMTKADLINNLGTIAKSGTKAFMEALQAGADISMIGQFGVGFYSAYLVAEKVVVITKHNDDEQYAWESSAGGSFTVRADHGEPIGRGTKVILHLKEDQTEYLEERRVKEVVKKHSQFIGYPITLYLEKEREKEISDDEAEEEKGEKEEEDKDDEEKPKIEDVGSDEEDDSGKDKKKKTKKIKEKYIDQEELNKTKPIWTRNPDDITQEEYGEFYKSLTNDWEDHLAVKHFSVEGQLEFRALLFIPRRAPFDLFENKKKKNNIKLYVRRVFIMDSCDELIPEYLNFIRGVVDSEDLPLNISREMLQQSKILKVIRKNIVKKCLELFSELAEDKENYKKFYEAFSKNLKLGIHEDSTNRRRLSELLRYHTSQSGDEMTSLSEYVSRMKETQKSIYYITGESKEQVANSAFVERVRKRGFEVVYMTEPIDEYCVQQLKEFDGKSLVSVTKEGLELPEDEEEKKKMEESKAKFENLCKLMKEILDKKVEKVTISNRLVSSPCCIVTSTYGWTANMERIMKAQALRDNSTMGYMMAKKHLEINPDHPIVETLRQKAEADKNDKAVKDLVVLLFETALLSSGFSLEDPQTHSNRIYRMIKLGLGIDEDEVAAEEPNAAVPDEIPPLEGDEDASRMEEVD
As for `CO[C@H]1C=CC=C(C)C(=O)Nc2cc(O)c(N=CCN(C)C)c(c2O)C[C@@H](C)C[C@H](OC)[C@H](N)[C@@H](C)/C=C(\C)[C@@H]1OC(N)=O`, the dissociation constant Kd (in general, the concentration at which binding is half-saturated) was over 25 µM. As to `CO[C@H]1C=CC=C(C)C(=O)Nc2cc(O)c(N=CCN(C)C)c(c2O)C[C@@H](C)C[C@H](OC)[C@H](NCCF)[C@@H](C)/C=C(\C)[C@@H]1OC(N)=O`, the Kd was over 50 µM. `CO[C@H]1C[C@H](C)Cc2c(O)c(cc(O)c2N=CCN(C)C)NC(=O)C(C)=CC=C[C@H](OC)[C@@H](OC(N)=O)/C(C)=C/[C@H](C)/C1=N\OCc1ccccc1`: the Kd is over 100 µM.

Regarding `CO[C@H]1C[C@H](C)Cc2c(O)c(cc(O)c2N=CCN(C)C)NC(=O)C(C)=CC=C[C@H](OC)[C@@H](OC(N)=O)/C(C)=C/[C@H](C)/C1=N\OCC(=O)O` [2-(((8S,9S,12S,14S,16R)-9-(carbamoyloxy)-19-(2-(dimethylamino)ethylamino)-8,14-dimethoxy-4,10,12,16-tetramethyl-3,20,22-trioxo-2-azabicyclo[16.3.1]docosa-1(21),4,6,10,18-pentaen-13-ylidene)aminooxy)acetic acid], the equilibrium dissociation constant (Kd) was over 25 µM.

For `C=CCO[C@H]1[C@@H](OC)CC(C)=Cc2c(O)c(cc(O)c2N2CCC2)NC(=O)C(C)=CC=C[C@H](OC)[C@@H](OC(N)=O)/C(C)=C/[C@@H]1C` [11-O-Allyl-17-(1-azetidinyl)-17-demethoxygeldanamycin], the Kd was 2.9 µM. With `CO[C@H]1[C@@H](OC)C[C@H](C)Cc2c(O)c(cc(O)c2N=CCN(C)C)NC(=O)C(C)=CC=C[C@H](OC)[C@@H](OC(N)=O)/C(C)=C/[C@@H]1C` [11-O-Methyl-17-[2-(dimethylamino)ethyl]amino-17-demethoxygeldanamycin] the figure was 0.8 µM; with `CO[C@H]1C[C@H](C)Cc2c(O)c(cc(O)c2N=CCF)NC(=O)C(C)=CC=C[C@H](OC)[C@@H](OC(N)=O)C(C)=C[C@H](C)C1N=O` (stereo partly drawn) [(8S,9S,12S,13E,14S,16R)-19-(2-fluoroethylamino)-13-(hydroxyimino)-8,14-dimethoxy-4,10,12,16-tetramethyl-3,20,22-trioxo-2-azabicyclo[16.3.1]docosa-1(21),4,6,10,18-pentaen-9-yl carbamate], over 25 µM. The value for `C=CC=Nc1c(O)cc2c(O)c1C[C@@H](C)C[C@H](OC)C(N=O)[C@@H](C)C=C(C)[C@H](OC(N)=O)[C@@H](OC)C=CC=C(C)C(=O)N2` (stereo partly drawn) [(8S,9S,12S,13E,14S,16R)-19-(allylamino)-13-(hydroxyimino)-8,14-dimethoxy-4,10,12,16-tetramethyl-3,20,22-trioxo-2-azabicyclo[16.3.1]docosa-1(21),4,6,10,18-pentaen-9-yl carbamate] was over 10 µM; that for `CO[C@H]1[C@@H](OC)C[C@H](C)Cc2c(O)c(cc(O)c2N=CCN2CCCC2)NC(=O)C(C)=CC=C[C@H](OC)[C@@H](OC(N)=O)/C(C)=C/[C@@H]1C` [(8S,9S,12S,13R,14S,16R)-8,13,14-trimethoxy-4,10,12,16-tetramethyl-3,20,22-trioxo-19-(2-(pyrrolidin-1-yl)ethylamino)-2-azabicyclo[16.3.1]docosa-1(21),4,6,10,18-pentaen-9-yl carbamate] was 1 µM.

`CNCC=Nc1c(O)cc2c(O)c1C[C@@H](C)C[C@H](OC)[C@H](OC(=O)CN)[C@@H](C)/C=C(\C)[C@H](OC(N)=O)[C@@H](OC)C=CC=C(C)C(=O)N2` [(8S,9S,12S,13R,14S,16R)-9-(carbamoyloxy)-8,14-dimethoxy-4,10,12,16-tetramethyl-19-(2-(methylamino)ethylamino)-3,20,22-trioxo-2-azabicyclo[16.3.1]docosa-1(21),4,6,10,18-pentaen-13-yl 2-aminoacetate]: the equilibrium dissociation constant (Kd) was over 25 µM. For `CO[C@H]1C=CC=C(C)C(=O)Nc2cc(O)c(N=CCF)c(c2O)C[C@@H](C)C[C@H](OC)[C@H](OC(=O)CN)[C@@H](C)/C=C(\C)[C@@H]1OC(N)=O` [(8S,9S,12S,13R,14S,16R)-9-(carbamoyloxy)-19-(2-fluoroethylamino)-8,14-dimethoxy-4,10,12,16-tetramethyl-3,20,22-trioxo-2-azabicyclo[16.3.1]docosa-1(21),4,6,10,18-pentaen-13-yl 2-aminoacetate], the dissociation constant Kd is over 25 µM. Take `CO[C@H]1C=CC=C(C)C(=O)Nc2cc(O)c(N=CCN(C)C)c(c2O)C[C@@H](C)C[C@H](OC)[C@H](NCCN(C)C)[C@@H](C)/C=C(\C)[C@@H]1OC(N)=O` [(8S,9S,12S,13R,14S,16R)-13,19-bis(2-(dimethylamino)ethylamino)-8,14-dimethoxy-4,10,12,16-tetramethyl-3,20,22-trioxo-2-azabicyclo[16.3.1]docosa-1(21),4,6,10,18-pentaen-9-yl carbamate]: the Kd was over 50 µM. As to `CO[C@H]1C=CC=C(C)C(=O)Nc2cc(O)c(N=CCN(C)C)c(c2O)C[C@@H](C)C[C@H](OC)[C@H](NCC(F)F)[C@@H](C)/C=C(\C)[C@@H]1OC(N)=O` [(8S,9S,12S,13R,14S,16R)-13-(2,2-difluoroethylamino)-19-(2-(dimethylamino)ethylamino)-8,14-dimethoxy-4,10,12,16-tetramethyl-3,20,22-trioxo-2-azabicyclo[16.3.1]docosa-1(21),4,6,10,18-pentaen-9-yl carbamate], the Kd came out at 2.9 µM. Regarding `CO[C@H]1C=CC=C(C)C(=O)Nc2cc(O)c(N=CCN3CCCC3)c(c2O)C[C@@H](C)C[C@H](OC)[C@H](O)[C@@H](C)/C=C(\C)[C@@H]1OC(N)=O` [(8S,9S,12S,13R,14S,16R)-13-hydroxy-8,14-dimethoxy-4,10,12,16-tetramethyl-3,20,22-trioxo-19-(2-(pyrrolidin-1-yl)ethylamino)-2-azabicyclo[16.3.1]docosa-1(21),4,6,10,18-pentaen-9-yl carbamate], the Kd worked out at 0.4 µM. As to `CO[C@H]1C=CC=C(C)C(=O)Nc2cc(O)c(N=CCc3cnc[nH]3)c(c2O)C[C@@H](C)C[C@H](OC)[C@H](O)[C@@H](C)/C=C(\C)[C@@H]1OC(N)=O` [(8S,9S,12S,13R,14S,16R)-19-(2-(1H-imidazol-4-yl)ethylamino)-13-hydroxy-8,14-dimethoxy-4,10,12,16-tetramethyl-3,20,22-trioxo-2-azabicyclo[16.3.1]docosa-1(21),4,6,10,18-pentaen-9-yl carbamate], the dissociation constant (Kd) came to 0.8 µM.

Regarding `CO[C@H]1[C@@H](OC)C[C@H](C)Cc2c(O)c(cc(O)c2N=CCN2CCC2)NC(=O)C(C)=CC=C[C@H](OC)[C@@H](OC(N)=O)/C(C)=C/[C@@H]1C` [(8S,9S,12S,13R,14S,16R)-19-(2-(azetidin-1-yl)ethylamino)-8,13,14-trimethoxy-4,10,12,16-tetramethyl-3,20,22-trioxo-2-azabicyclo[16.3.1]docosa-1(21),4,6,10,18-pentaen-9-yl carbamate], the dissociation constant Kd is 1 µM. The value for `CO[C@H]1C=CC=C(C)C(=O)Nc2cc(O)c(N=CCN3CCC3)c(c2O)C[C@@H](C)C[C@H](OC)[C@H](O)[C@@H](C)/C=C(\C)[C@@H]1OC(N)=O` [(8S,9S,12S,13R,14S,16R)-19-(2-(azetidin-1-yl)ethylamino)-13-hydroxy-8,14-dimethoxy-4,10,12,16-tetramethyl-3,20,22-trioxo-2-azabicyclo[16.3.1]docosa-1(21),4,6,10,18-pentaen-9-yl carbamate] was 0.4 µM; that for `CO[C@H]1C=CC=C(C)C(=O)Nc2cc(O)c(N=CCN(C)C)c(c2O)C[C@@H](C)C[C@H](OC)[C@H](NCC(F)(F)F)[C@@H](C)/C=C(\C)[C@@H]1OC(N)=O` [(8S,9S,12S,13R,14S,16R)-19-(2-(dimethylamino)ethylamino)-8,14-dimethoxy-4,10,12,16-tetramethyl-3,20,22-trioxo-13-(2,2,2-trifluoroethylamino)-2-azabicyclo[16.3.1]docosa-1(21),4,6,10,18-pentaen-9-yl carbamate] was 4 µM; that for `CO[C@H]1C=CC=C(C)C(=O)Nc2cc(O)c(N=CCN(C)C)c(c2O)C[C@@H](C)C[C@H](OC)[C@H](NCCC(F)(F)F)[C@@H](C)/C=C(\C)[C@@H]1OC(N)=O` [(8S,9S,12S,13R,14S,16R)-19-(2-(dimethylamino)ethylamino)-8,14-dimethoxy-4,10,12,16-tetramethyl-3,20,22-trioxo-13-(3,3,3-trifluoropropylamino)-2-azabicyclo[16.3.1]docosa-1(21),4,6,10,18-pentaen-9-yl carbamate] was over 10 µM. Turning to `C=CC=Nc1c(O)cc2c(O)c1C[C@@H](C)C[C@H](OC)[C@H](OC(=O)CN)[C@@H](C)/C=C(\C)[C@H](OC(N)=O)[C@@H](OC)C=CC=C(C)C(=O)N2` [(8S,9S,12S,13R,14S,16R)-19-(allylamino)-9-(carbamoyloxy)-8,14-dimethoxy-4,10,12,16-tetramethyl-3,20,22-trioxo-2-azabicyclo[16.3.1]docosa-1(21),4,6,10,18-pentaen-13-yl 2-aminoacetate], the dissociation constant (Kd) was over 25 µM.

`C=CC=Nc1c(O)cc2c(O)c1C[C@@H](C)C[C@H](OC)[C@H](OC(=O)CCN)[C@@H](C)/C=C(\C)[C@H](OC(N)=O)[C@@H](OC)C=CC=C(C)C(=O)N2` [(8S,9S,12S,13R,14S,16R)-19-(allylamino)-9-(carbamoyloxy)-8,14-dimethoxy-4,10,12,16-tetramethyl-3,20,22-trioxo-2-azabicyclo[16.3.1]docosa-1(21),4,6,10,18-pentaen-13-yl 3-aminopropanoate]: the Kd is over 25 µM.

On to `CO[C@H]1[C@@H](OC)CC(C)=Cc2c(O)c(cc(O)c2N2CCC2)NC(=O)C(C)=CC=C[C@H](OC)[C@@H](OC(N)=O)/C(C)=C/[C@@H]1C` [(8S,9S,12S,13R,14S,16R)-19-(azetidin-1-yl)-8,13,14-trimethoxy-4,10,12,16-tetramethyl-3,20,22-trioxo-2-azabicyclo[16.3.1]docosa-1(21),4,6,10,18-pentaen-9-yl carbamate], for which the Kd came out at 4 µM. With `CO[C@H]1C[C@H](C)Cc2c(O)c(cc(O)c2N=CCN(C)C)NC(=O)C(C)=CC=C[C@H](OC)[C@@H](OC(N)=O)/C(C)=C/[C@H](C)/C1=N\OCCN(C)C` [(8S,9S,12S,14S,16R)-13-(2-(dimethylamino)ethoxyimino)-19-(2-(dimethylamino)ethylamino)-8,14-dimethoxy-4,10,12,16-tetramethyl-3,20,22-trioxo-2-azabicyclo[16.3.1]docosa-1(21),4,6,10,18-pentaen-9-yl carbamate], the Kd was over 100 µM.

The values are drawn from BindingDB's records for doi:10.1021/jm900098v (Kosan Biosciences, 2009).
